Numbered stars: 1 amine (or outer) side, 2 acyl side, 3 side chain; on linkers, the order of the positions; unused ones are H or OH. Peptide text beside a SMILES is read from it. * marks the point of attachment. C20 diacid = O=C(O)CCCCCCCCCCCCCCCCCCC(=O)*; C18 diacid = O=C(O)CCCCCCCCCCCCCCCCC(=O)*; γGlu = O=C(O)[C@H](CCC(=O)[*:2])N[*:1]; C14 diacid = O=C(O)CCCCCCCCCCCCC(=O)*
Assays:
[1] = molecular target: T1, Amylin receptor AMY3; CALCR/RAMP3 (Homo sapiens, UniProt O60896+P30988); experiment: Agonist activity at human amylin receptor expressed in BHK570 cells co-expressing RAMP3 assessed as increase in intracellular cAMP concentration incubated for 3 hrs in absence of albumin by CRE luciferase reporter gene assay; type: functional, cell-based
T1 sequence (P30988 whole entry): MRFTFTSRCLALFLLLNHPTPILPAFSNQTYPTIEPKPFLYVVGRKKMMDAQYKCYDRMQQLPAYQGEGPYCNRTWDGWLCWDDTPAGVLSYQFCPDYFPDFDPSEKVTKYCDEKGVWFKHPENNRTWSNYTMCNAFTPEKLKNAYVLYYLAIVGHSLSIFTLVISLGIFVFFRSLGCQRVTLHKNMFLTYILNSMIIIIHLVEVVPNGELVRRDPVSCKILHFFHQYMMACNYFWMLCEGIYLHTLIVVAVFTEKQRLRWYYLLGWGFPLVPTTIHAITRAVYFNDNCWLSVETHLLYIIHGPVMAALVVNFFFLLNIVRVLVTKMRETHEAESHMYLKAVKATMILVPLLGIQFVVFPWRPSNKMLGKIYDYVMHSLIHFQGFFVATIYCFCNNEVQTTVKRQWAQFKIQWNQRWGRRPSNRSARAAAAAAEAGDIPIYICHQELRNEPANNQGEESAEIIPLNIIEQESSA
T1 sequence (O60896 whole entry): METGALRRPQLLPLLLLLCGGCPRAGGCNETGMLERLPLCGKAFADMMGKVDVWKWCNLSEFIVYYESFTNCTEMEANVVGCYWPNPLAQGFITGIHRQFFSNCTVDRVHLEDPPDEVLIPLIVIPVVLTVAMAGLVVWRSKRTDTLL

Calcitonin receptor [2] = molecular target: T2, Calcitonin receptor (Homo sapiens, UniProt P30988); experiment: Agonist activity at human calcitonin receptor expressed in BHK570 cells assessed as increase in intracellular cAMP concentration incubated for 3 hrs in absence of albumin by CRE luciferase reporter gene assay; type: functional, cell-based
T2 sequence (P30988 whole entry): T1 sequence (P30988 whole entry)

[3] = Stability in pH 7.5 buffer assessed as lag time for fibril formation at 1 uM by Thioflavin T based fluorescence assay; type: physicochemical; settings: pH 7.5, 1 µM
[4] = Stability in pH 7.5 buffer assessed as compound recovery at 1 uM by Thioflavin T based fluorescence assay; type: physicochemical; settings: read-out: Drug recovery
[5] = Solubility in 100 mM glycylglycine buffer at pH 3.0 incubated for 18 hrs by UPLC analysis; type: physicochemical
[6] = Solubility in 100 mM glycylglycine buffer at pH 4.0 incubated for 18 hrs by UPLC analysis; type: physicochemical
[7] = Solubility in 100 mM bistrispropane buffer at pH 6.0 incubated for 18 hrs by UPLC analysis; type: physicochemical
[8] = Solubility in 100 mM glycylglycine buffer at pH 5.0 incubated for 18 hrs by UPLC analysis; type: physicochemical
[9] = Solubility in 100 mM bistrispropane buffer at pH 6.5 incubated for 18 hrs by UPLC analysis; type: physicochemical
[10] = Solubility in 100 mM bistrispropane buffer at pH 7.0 incubated for 18 hrs by UPLC analysis; type: physicochemical
[11] = Solubility in 100 mM bistrispropane buffer at pH 7.5 incubated for 18 hrs by UPLC analysis; type: physicochemical
[12] = Solubility in 100 mM bistrispropane buffer at pH 8.0 incubated for 18 hrs by UPLC analysis; type: physicochemical
[13] = molecular target: T1, Amylin receptor AMY3; CALCR/RAMP3; experiment: Displacement of [125I]-labeled rat amylin from human amylin receptor expressed in BHK570 cell membranes co-expressing RAMP3 incubated for 120 mins by scintillation proximity assay
Calcitonin receptor [14] = molecular target: T2, Calcitonin receptor; experiment: Displacement of [125I]-labeled human calcitonin from human calcitonin receptor expressed in BHK tkts13 cell membranes incubated for 1 hr by scintillation proximity assay
[15] = molecular target: T3, Amylin receptor AMY3; CALCR/RAMP3 (Rattus norvegicus, UniProt P32214+Q9JJ73); experiment: Displacement of [125I]-labeled rat amylin from rat amylin receptor expressed in BHK tkts13 cell membranes co-expressing RAMP3 incubated for 120 mins by scintillation proximity assay
T3 sequence (P32214 whole entry): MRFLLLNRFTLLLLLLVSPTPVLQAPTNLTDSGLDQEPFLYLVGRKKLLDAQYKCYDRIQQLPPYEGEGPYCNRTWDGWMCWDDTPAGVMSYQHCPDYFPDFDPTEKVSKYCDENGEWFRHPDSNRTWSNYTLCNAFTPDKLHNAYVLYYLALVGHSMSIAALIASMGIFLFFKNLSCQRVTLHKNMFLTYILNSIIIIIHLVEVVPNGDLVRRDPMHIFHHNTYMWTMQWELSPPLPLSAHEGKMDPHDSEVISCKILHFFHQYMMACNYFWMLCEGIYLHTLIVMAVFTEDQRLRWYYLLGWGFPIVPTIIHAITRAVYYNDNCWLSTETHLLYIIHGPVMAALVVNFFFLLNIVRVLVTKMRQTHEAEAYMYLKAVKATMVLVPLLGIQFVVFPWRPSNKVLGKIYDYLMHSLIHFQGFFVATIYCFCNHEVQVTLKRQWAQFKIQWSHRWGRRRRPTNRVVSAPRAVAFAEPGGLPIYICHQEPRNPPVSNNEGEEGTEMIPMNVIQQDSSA
T3 sequence (Q9JJ73 whole entry): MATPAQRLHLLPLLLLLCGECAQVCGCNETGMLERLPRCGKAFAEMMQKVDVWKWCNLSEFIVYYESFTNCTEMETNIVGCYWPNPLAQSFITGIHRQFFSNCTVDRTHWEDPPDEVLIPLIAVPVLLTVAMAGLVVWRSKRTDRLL

Rattus norvegicus [16] = experiment: Reduction in food intake in Sprague-Dawley rat at 3 nmol/kg measured 0 to 24 hrs post dose relative to control; type: functional; parameters: scale not given: the % may be the effect or the level left
Rattus norvegicus [17] = experiment: Reduction in food intake in Sprague-Dawley rat at 3 nmol/kg measured 24 to 48 hrs post dose relative to control; type: functional; parameters: scale not given: the % may be the effect or the level left
[18] = molecular target: T1, Amylin receptor AMY3; CALCR/RAMP3; experiment: Agonist activity at human amylin receptor expressed in BHK570 cells co-expressing RAMP3 assessed as increase in intracellular cAMP concentration incubated for 3 hrs in presence of 10% FBS by CRE luciferase reporter gene assay; type: functional, cell-based
Calcitonin receptor [19] = molecular target: T2, Calcitonin receptor; experiment: Agonist activity at human calcitonin receptor expressed in BHK570 cells assessed as increase in intracellular cAMP concentration incubated for 3 hrs in presence of 10% FBS by CRE luciferase reporter gene assay; type: functional, cell-based
[20] = molecular target: T1, Amylin receptor AMY3; CALCR/RAMP3; experiment: Displacement of [125I]-labeled rat amylin from human amylin receptor expressed in BHK tkts13 whole cells co-expressing RAMP3 incubated for 60 mins by scintillation proximity assay; type: cell-based

Row | SMILES | EC50 [1] [nM] | EC50 (Calcitonin receptor [2]) [nM] | Time [3] [h] | remaining at 1 µM [4] [%] | solubility at 18 h [5] [µM] | solubility at 18 h [6] [µM] | solubility at 18 h [7] [µM] | solubility at 18 h [8] [µM] | solubility at 18 h [9] [µM] | solubility at 18 h [10] [µM] | solubility at 18 h [11] [µM] | solubility at 18 h [12] [µM] | IC50 [13] [nM] | IC50 (Calcitonin receptor [14]) [nM] | IC50 [15] [nM] | Activity (Rattus norvegicus [16]) [%] | Activity (Rattus norvegicus [17]) [%] | EC50 [18] [nM] | EC50 (Calcitonin receptor [19]) [nM] | IC50 [20] [nM]
1 | CC(C)C[C@H](NC(=O)[C@H](C)NC(=O)[C@H](C)NC(=O)[C@@H](NC(=O)[C@H](CO)NC(=O)[C@H](CC(C)C)NC(=O)[C@H](CCC(=O)O)NC(=O)[C@H](CO)NC(=O)[C@H](C)NC(=O)CC[C@H](NC(=O)CCCCCCCCCCCCC(=O)O)C(=O)O)[C@@H](C)O)C(=O)NCC(=O)N[C@@H](CCCNC(=N)N)C(=O)N[C@@H](CC(C)C)C(=O)N[C@@H](CO)C(=O)N[C@@H](C)C(=O)N[C@@H](CCC(=O)O)C(=O)N[C@@H](CC(C)C)C(=O)N[C@@H](Cc1cnc[nH]1)C(=O)N[C@@H](CCC(=O)O)C(=O)N[C@@H](CC(C)C)C(=O)N[C@@H](C)C(=O)N[C@H](C(=O)N[C@@H](CC(C)C)C(=O)N1CCC[C@H]1C(=O)N[C@@H](CCCNC(=N)N)C(=O)N[C@H](C(=O)N[C@@H](CCC(=O)O)C(=O)N[C@H](C(=O)NCC(=O)N[C@@H](CO)C(=O)NCC(=O)N[C@@H](CO)C(=O)N1CCC[C@H]1C(N)=O)[C@@H](C)O)[C@@H](C)O)[C@@H](C)O ({C14 diacid-γGlu}-ASELSTAALGRLSAELHELATLPRTETGSGSP-NH2) | 0.006 | 0.004 | > 45 | 98 | ≥ 200 | ≥ 200 | ≥ 200 | ≥ 200 | ≥ 200 | ≥ 200 | ≥ 200 | ≥ 200 | 0.054 | 0.023 | 0.122 |  |  |  |  | 
2 | CC(C)C[C@H](NC(=O)[C@H](C)NC(=O)[C@H](C)NC(=O)[C@@H](NC(=O)[C@H](CO)NC(=O)[C@H](CC(C)C)NC(=O)[C@H](CCC(=O)O)NC(=O)[C@H](CO)NC(=O)[C@H](C)NC(=O)CCCCCCCCCCCCCCCCC(=O)O)[C@@H](C)O)C(=O)NCC(=O)N[C@@H](CCCNC(=N)N)C(=O)N[C@@H](CC(C)C)C(=O)N[C@@H](CO)C(=O)N[C@@H](C)C(=O)N[C@@H](CCC(=O)O)C(=O)N[C@@H](CC(C)C)C(=O)N[C@@H](Cc1cnc[nH]1)C(=O)N[C@@H](CCC(=O)O)C(=O)N[C@@H](CC(C)C)C(=O)N[C@@H](C)C(=O)N[C@H](C(=O)N[C@@H](CC(C)C)C(=O)N1CCC[C@H]1C(=O)N[C@@H](CCCNC(=N)N)C(=O)N[C@H](C(=O)N[C@@H](CCC(=O)O)C(=O)N[C@H](C(=O)NCC(=O)N[C@@H](CO)C(=O)NCC(=O)N[C@@H](CO)C(=O)N1CCC[C@H]1C(N)=O)[C@@H](C)O)[C@@H](C)O)[C@@H](C)O ({C18 diacid}-ASELSTAALGRLSAELHELATLPRTETGSGSP-NH2) | 0.018 | 0.017 |  |  | ≥ 200 | ≥ 200 | ≥ 200 | ≥ 200 | ≥ 200 | ≥ 200 | ≥ 200 | ≥ 200 | 0.077 | 0.034 | 0.063 | 52 | 11 | 0.009 | 0.008 | 
3 | CC(C)C[C@H](NC(=O)[C@H](C)NC(=O)[C@H](C)NC(=O)[C@@H](NC(=O)[C@H](CO)NC(=O)[C@H](CC(C)C)NC(=O)[C@H](CCC(=O)O)NC(=O)[C@H](CO)NC(=O)[C@H](C)NC(=O)CC[C@H](NC(=O)CCCCCCCCCCCCCCCCCCC(=O)O)C(=O)O)[C@@H](C)O)C(=O)NCC(=O)N[C@@H](Cc1cnc[nH]1)C(=O)N[C@@H](CC(C)C)C(=O)N[C@@H](CO)C(=O)N[C@@H](C)C(=O)N[C@@H](CCC(=O)O)C(=O)N[C@@H](CC(C)C)C(=O)N[C@@H](Cc1cnc[nH]1)C(=O)N[C@@H](CCC(=O)O)C(=O)N[C@@H](CC(C)C)C(=O)N[C@@H](C)C(=O)N[C@H](C(=O)N[C@@H](CC(C)C)C(=O)N1CCC[C@H]1C(=O)N[C@@H](CCCNC(=N)N)C(=O)N[C@H](C(=O)N[C@@H](CCC(=O)O)C(=O)N[C@H](C(=O)NCC(=O)N[C@@H](CO)C(=O)NCC(=O)N[C@@H](CO)C(=O)N1CCC[C@H]1C(N)=O)[C@@H](C)O)[C@@H](C)O)[C@@H](C)O ({C20 diacid-γGlu}-ASELSTAALGHLSAELHELATLPRTETGSGSP-NH2) | 0.017 | 0.012 |  |  | ≥ 200 | ≥ 200 | ≥ 200 | ≥ 200 | ≥ 200 | ≥ 200 | ≥ 200 | ≥ 200 | 0.565 | 0.097 | 1.53 | 17 | 11 |  | 0.048 | 0.697
4 | CC(C)C[C@H](NC(=O)[C@H](C)NC(=O)[C@H](C)NC(=O)[C@@H](NC(=O)[C@H](CO)NC(=O)[C@H](CC(C)C)NC(=O)[C@H](CCC(=O)O)NC(=O)[C@H](CO)NC(=O)[C@H](C)NC(=O)CC[C@H](NC(=O)CCCCCCCCCCCCCCCCCCC(=O)O)C(=O)O)[C@@H](C)O)C(=O)NCC(=O)N[C@@H](CCCNC(=N)N)C(=O)N[C@@H](CC(C)C)C(=O)N[C@@H](CO)C(=O)N[C@@H](C)C(=O)N[C@@H](CCC(=O)O)C(=O)N[C@@H](CC(C)C)C(=O)N[C@@H](Cc1cnc[nH]1)C(=O)N[C@@H](CCC(=O)O)C(=O)N[C@@H](CC(C)C)C(=O)N[C@@H](C)C(=O)N[C@H](C(=O)N[C@@H](CC(C)C)C(=O)N1CCC[C@H]1C(=O)N[C@@H](CCCNC(=N)N)C(=O)N[C@H](C(=O)N[C@@H](CCC(=O)O)C(=O)N[C@H](C(=O)NCC(=O)N[C@@H](CO)C(=O)NCC(=O)N[C@@H](CO)C(=O)N[C@@H](Cc1cnc[nH]1)C(N)=O)[C@@H](C)O)[C@@H](C)O)[C@@H](C)O ({C20 diacid-γGlu}-ASELSTAALGRLSAELHELATLPRTETGSGSH-NH2) | 0.053 | 0.048 | > 45 | 100 | ≥ 200 | ≥ 200 | ≥ 200 | ≥ 200 | ≥ 200 | ≥ 200 | ≥ 200 | ≥ 200 | 0.057 | 0.034 | 0.046 |  |  |  | 0.072 | 1.07

— ChEMBL document CHEMBL4420076, “Amylin and calcitonin receptor agonist” (2017)
